Tests used:
Human adenovirus 5 [1] = assay: Antiviral activity against Human adenovirus 5 infected in HEK293beta5 cells coexpressing GFP assessed as inhibition of plaque formation at 10 uM incubated for 7 days relative to control; format: functional; conditions: Human mastadenovirus C, 168 h
[2] = Cytotoxicity against human A549 cells assessed as reduction in cell viability incubated for 48 hrs by alamarBlue assay; format: cell-based
[3] = Selectivity Index, ratio of CC50 for human A549 cells to IC50 for Human adenovirus 5 infected in HEK293beta5 cells coexpressing GFP; format: toxicity, cell-based; conditions: read-out: Ratio CC50/IC50
Human adenovirus 5 [4] = assay: Antiviral activity against Human adenovirus 5 infected in A549 cells assessed as fold reduction in virus yield at 50 uM incubated for 48 hrs by endpoint dilution method relative to control; format: functional

Row | Structure (SMILES) | inhibition at 10 µM (Human adenovirus 5 [1]) [%] | CC50 at 48 h [2] [µM] | selectivity ratio [3] | fold change (FC) (Human adenovirus 5 [4])
1 | O=C(Nc1ccc([N+](=O)[O-])cc1)N1CCN(C(=O)c2cc3ccccc3o2)CC1 | 0 | – | – | –
2 | CC1CN(C(=O)CC2CCCCC2)CCN1C(=S)Nc1ccc(Cl)cc1 (stereo not given) | 89.3 | 200 | – | –
3 | COc1ccc(NC(=S)N2CCN(C(=O)CC3CCCCC3)CC2C)cc1 (stereo not given) | 25.5 | – | – | –
4 | CC1CN(C(=O)CC2CCCCC2)CCN1C(=S)Nc1cc(C(F)(F)F)cc(C(F)(F)F)c1 (stereo not given) | 100 | 82.4 | – | –
5 | CC1CN(C(=O)CC(C)(C)C)CCN1C(=S)Nc1ccc([N+](=O)[O-])cc1 (stereo not given) | 76.2 | – | – | –
6 | CC1CN(C(=O)OC(C)(C)C)CCN1C(=S)Nc1ccc(C(F)(F)F)cc1 (stereo not given) | 73.4 | – | – | –
7 | CC1CN(C(=O)c2cc3ccccc3o2)CCN1C(=S)Nc1ccc(C(F)(F)F)cc1 (stereo not given) | 100 | 46.3 | – | –
8 | O=C(c1cc2ccccc2o1)N1CCN(C(=O)c2cc3ccccc3o2)C(c2ccccc2)C1 (stereo not given) | 19.4 | – | – | –
9 | CC1CN(C(=O)c2cc3ccccc3o2)CC(C)N1C(=O)Nc1ccc(Cl)cc1 (stereo not given) | 81.1 | 113 | – | –
10 | O=C(CC1CCCCC1)N1CCN(C(=O)Nc2ccc([N+](=O)[O-])cc2)C(c2ccccc2)C1 (stereo not given) | 98.9 | 71.8 | – | –
11 | CC1CN(C(=O)c2cc3ccccc3o2)CCN1C(=S)Nc1ccc(F)cc1 (stereo not given) | 85 | 75.4 | – | –
12 | O=C(c1cc2ccccc2o1)N1CCN(C(=O)Nc2ccc(Cl)cc2)C(c2ccccc2)C1 (stereo not given) | – | – | 42.7 | 16.9
13 | O=C(c1cc2ccccc2o1)N1CCN(C(=O)c2cc3ccccc3o2)CC1 | 51.5 | – | – | –
14 | CC1CN(C(=O)OC(C)(C)C)CCN1C(=S)Nc1ccc(Cl)cc1 (stereo not given) | 73.4 | – | – | –
15 | CC1CN(C(=O)c2cc3ccccc3o2)CC(C)N1C(=O)Nc1ccccc1[N+](=O)[O-] (stereo not given) | 72.2 | – | – | –
16 | CC1CN(C(=O)c2cc3ccccc3o2)CC(C)N1C(=O)Nc1cc(C(F)(F)F)ccc1Cl (stereo not given) | 0 | – | – | –
17 | COc1ccc(NC(=S)N2CCN(C(=O)OC(C)(C)C)CC2C)cc1 (stereo not given) | 36.5 | – | – | –
18 | Cc1ccc(NC(=O)N2C(C)CN(C(=O)c3cc4ccccc4o3)CC2C)cc1 (stereo not given) | 0 | – | – | –
19 | CC1CN(C(=O)CC2CCCCC2)CCN1C(=S)Nc1ccc(C(F)(F)F)cc1 (stereo not given) | 88.9 | 142 | – | –
20 | N#Cc1ccc(NC(=O)N2CCN(C(=O)c3cc4ccccc4o3)CC2c2ccccc2)cc1 (stereo not given) | – | – | 53.3 | 34.5

Row | Structure (SMILES) | inhibition at 10 µM (Human adenovirus 5 [1]) [%] | CC50 at 48 h [2] [µM] | selectivity ratio [3] | fold change (FC) (Human adenovirus 5 [4])
21 | CC1CN(C(=O)CC(C)(C)C)CCN1C(=S)Nc1ccc(Cl)cc1 (stereo not given) | 61.6 | – | – | –
22 | O=C(CC1CCCCC1)N1CCN(C(=S)Nc2ccc(F)cc2)C(c2ccccc2)C1 (stereo not given) | 5 | – | – | –
23 | COc1ccc(NC(=S)N2CCN(C(=O)CC(C)(C)C)CC2C)cc1 (stereo not given) | 58.1 | – | – | –
24 | CC1CN(C(=O)c2cc3ccccc3o2)CC(C)N1C(=O)Nc1ccc(Cl)c(C(F)(F)F)c1 (stereo not given) | 0 | – | – | –
25 | CC1CN(C(=O)CC2CCCCC2)CCN1C(=S)Nc1ccc([N+](=O)[O-])cc1 (stereo not given) | 82.6 | 148 | – | –
26 | CC(C)(C)CC(=O)N1CCN(C(=O)Nc2ccccc2[N+](=O)[O-])C(c2ccccc2)C1 (stereo not given) | 100 | 63.3 | – | –
27 | N#Cc1ccc(NC(=S)N2CCN(C(=O)Cc3ccccc3)CC2c2ccccc2)cc1 (stereo not given) | 64 | – | – | –
28 | CC1CN(C(=O)OC(C)(C)C)CCN1C(=S)Nc1ccc(C#N)cc1 (stereo not given) | 88.9 | 175 | – | –
29 | CC(C)(C)OC(=O)N1CCN(C(=S)Nc2ccc(F)cc2)C(c2ccccc2)C1 (stereo not given) | 27.5 | – | – | –
30 | CC1CN(C(=O)OC(C)(C)C)CCN1C(=S)Nc1ccc([N+](=O)[O-])cc1 (stereo not given) | 100 | – | – | –
31 | Cc1ccc(NC(=S)N2CCN(C(=O)CC(C)(C)C)CC2C)cc1 (stereo not given) | 76.8 | – | – | –
32 | CC1CN(C(=O)Cc2ccccc2)CCN1C(=S)Nc1ccc(C(F)(F)F)cc1 (stereo not given) | 73.4 | – | – | –
33 | CC(C)(C)CC(=O)N1CCN(C(=O)Nc2ccc([N+](=O)[O-])cc2)C(c2ccccc2)C1 (stereo not given) | 74.4 | 72 | – | –
34 | CC1CN(C(=O)Cc2ccccc2)CCN1C(=S)Nc1ccc(F)cc1 (stereo not given) | 100 | 26.3 | – | –
35 | CC(C)(C)OC(=O)N1CCN(C(=O)Nc2ccccc2[N+](=O)[O-])CC1 | 15 | – | – | –
36 | Cc1ccc(NC(=S)N2CCN(C(=O)CC3CCCCC3)CC2c2ccccc2)cc1 (stereo not given) | 15 | – | – | –
37 | Cc1ccc(NC(=S)N2CCN(C(=O)Cc3ccccc3)CC2C)cc1 (stereo not given) | 92.9 | 200 | – | –
38 | CC1CN(C(=O)c2cc3ccccc3o2)CCN1C(=S)Nc1ccc(C#N)cc1 (stereo not given) | 100 | 25.5 | – | –
39 | O=C(c1cc2ccccc2o1)N1CCN(C(=O)Nc2ccc([N+](=O)[O-])cc2)C(c2ccccc2)C1 (stereo not given) | 100 | – | 93.5 | –
40 | N#Cc1ccc(NC(=S)N2CCN(C(=O)CC3CCCCC3)CC2c2ccccc2)cc1 (stereo not given) | 80 | 65.3 | – | –

Row | Structure (SMILES) | inhibition at 10 µM (Human adenovirus 5 [1]) [%] | CC50 at 48 h [2] [µM] | selectivity ratio [3] | fold change (FC) (Human adenovirus 5 [4])
41 | CC1CN(C(=O)CC(C)(C)C)CCN1C(=S)Nc1cc(C(F)(F)F)cc(C(F)(F)F)c1 (stereo not given) | 4.81 | – | – | –
42 | CC1CN(C(=O)CC(C)(C)C)CCN1C(=S)Nc1ccc(C#N)cc1 (stereo not given) | 51 | – | – | –
43 | O=C(Cc1ccccc1)N1CCN(C(=O)Nc2cc(C(F)(F)F)ccc2Cl)C(c2ccccc2)C1 (stereo not given) | 100 | 64.5 | – | –
44 | O=C(Cc1ccccc1)N1CCN(C(=O)Nc2ccc([N+](=O)[O-])cc2)C(c2ccccc2)C1 (stereo not given) | 82.6 | 174 | – | –
45 | O=C(Nc1cc(C(F)(F)F)ccc1Cl)N1CCN(C(=O)Nc2cc(C(F)(F)F)ccc2Cl)C(c2ccccc2)C1 (stereo not given) | 90.4 | 200 | – | –
46 | CC1CN(C(=O)c2cc3ccccc3o2)CCN1C(=S)Nc1ccc([N+](=O)[O-])cc1 (stereo not given) | 100 | 20 | – | –
47 | Cc1ccc(NC(=S)N2CCN(C(=O)OC(C)(C)C)CC2C)cc1 (stereo not given) | 49.1 | – | – | –
48 | CC1CN(C(=O)CC(C)(C)C)CCN1C(=S)Nc1ccc(F)cc1 (stereo not given) | 7.5 | – | – | –
49 | CC1CN(C(=O)CC(C)(C)C)CCN1C(=S)Nc1ccc(C(F)(F)F)cc1 (stereo not given) | 36.3 | – | – | –
50 | COc1ccc(NC(=S)N2CCN(C(=O)Cc3ccccc3)CC2C)cc1 (stereo not given) | 88.9 | 175 | – | –
51 | CC1CN(C(=O)c2cc3ccccc3o2)CC(C)N1C(=O)Nc1ccc(C#N)cc1 (stereo not given) | 10 | – | – | –
52 | CC1CN(C(=O)c2cc3ccccc3o2)CC(C)N1C(=O)Nc1ccc([N+](=O)[O-])cc1 (stereo not given) | 12.2 | – | – | –
53 | CC(C)(C)CC(=O)N1CCN(C(=S)Nc2cc(C(F)(F)F)cc(C(F)(F)F)c2)C(c2ccccc2)C1 (stereo not given) | 100 | 91.8 | – | –
54 | O=C(c1cc2ccccc2o1)N1CCN(C(=O)Nc2cc(C(F)(F)F)ccc2Cl)C(c2ccccc2)C1 (stereo not given) | – | – | 116 | –
55 | O=C(Nc1cc(C(F)(F)F)ccc1Cl)N1CCN(C(=O)Nc2cc(C(F)(F)F)ccc2Cl)CC1 | 33.9 | – | – | –
56 | CC(C)(C)OC(=O)N1CCN(C(=O)Nc2ccc([N+](=O)[O-])cc2)C(c2ccccc2)C1 (stereo not given) | – | – | 47.3 | –
57 | CC1CN(C(=O)OC(C)(C)C)CCN1C(=S)Nc1cc(C(F)(F)F)cc(C(F)(F)F)c1 (stereo not given) | 11.1 | – | – | –
58 | O=C(Nc1ccccc1[N+](=O)[O-])N1CCN(C(=O)c2cc3ccccc3o2)CC1 | 41.5 | – | – | –
59 | O=C(Cc1ccccc1)N1CCN(C(=S)Nc2ccc([N+](=O)[O-])cc2)C(c2ccccc2)C1 (stereo not given) | 5.5 | – | – | –
60 | CC1CN(C(=O)Cc2ccccc2)CCN1C(=S)Nc1ccc(Cl)cc1 (stereo not given) | 84.6 | 175 | – | –
